The values that follow come from ChEMBL document CHEMBL1136472, “3-iodo-4-phenoxypyridinones (IOPY's), a new family of highly potent non-nucleoside inhibitors of HIV-1 reverse transcriptase” (Bioorg Med Chem Lett, 2003).

Assay [1] relates to MT4. The assay is described as follows: Anti-HIV-1 activity against LAI strain in MT-4 cells. Particulars: Homo sapiens. Type of assay: functional, cell-based.
The test system of assay [2] is MT4. Nature of the assay: Anti-HIV-1 activity against Y181C strain, in MT-4 cells by the MTT method. The class given is functional, cell-based. Particulars: Homo sapiens. A general note: Tetrazolium assays rely on reduction of a dye to a coloured formazan, in cell work by metabolically active cells.
A short description of assay [3]: Selectivity index is the ratio of 50% cytotoxic concentration to IC50 against LAI strain in MT-4 cells by the MTT method was determined. Type of assay: functional, MT4.
The subject of assay [4] is MT4. The assay is described as follows: Anti-HIV-1 activity against K103N strain in MT-4 cells by the MTT method. Type of assay: functional, cell-based. Particulars: Homo sapiens.
Assay [5] has as its system MT4. Nature of the assay: Anti-HIV-1 activity against LAI strain in MT-4 cells by the MTT method. The class given is functional, cell-based. To be noted: Homo sapiens.
Assay [6] has as its system MT4. The assay is described as follows: Anti-HIV-1 activity against K103N+[…] strain was determined in MT-4 cells by the MTT method. Type of assay: functional, cell-based. Particulars: Homo sapiens.
The subject of assay [7] is MT4. The assay is described as follows: Anti-HIV-1 activity against […] strain was determined in MT-4 cells by the MTT method. To be noted: Homo sapiens. Type of assay: functional, cell-based.
Assay [8] has as its system MT4. The assay is described as follows: Anti-HIV-1 activity against Y188L strain was determined in MT-4 cells by the MTT method. The class given is functional, cell-based. To be noted: Homo sapiens.
For assay [9], the system named is MT4. The assay is described as follows: Anti-HIV-1 activity against K103N+Y181C strain was determined in MT-4 cells by the MTT method. To be noted: Homo sapiens. Type of assay: functional, cell-based.

The term IC50 denotes the concentration that inhibits the measured activity by half. Low values mean inhibition by little substance, high ones a need for much substance.

`O=c1[nH]c(=O)n(COCCO)c(Sc2ccccc2)c1I`: in the assay on MT4 [1], the IC50 stood at 3.6 µM. This counts as single-digit micromolar.
Regarding `CCc1c(C)nc(O)c(I)c1Oc1cccc(C)c1`, the IC50 in the assay with MT4 [2] was found to be 0.051 µM; with MT4 [4], 0.032 µM; in the assay with MT4 [5], 0.0016 µM. Also, the SI in assay [3] is listed as 19900.
On the same counts, the results for `CCc1c(C)nc(O)c(N(C)C)c1Oc1cc(C)cc(C)c1` are 0.158 µM, 0.05 µM, 0.004 µM and 25000.
`CCc1c(C)nc(O)c(I)c1Oc1ccccc1`: the IC50 is 0.316 µM with MT4 [2], 0.04 µM in the assay with MT4 [4] and 0.0016 µM in the assay on MT4 [5]. For the same compound, the SI in assay [3] is given as 63000.
For the compound `CCc1c(Oc2cc(C)cc(C)c2)cc(=O)[nH]c1C`, the SI in [3] is 200. In the assay on MT4 [5], the half-maximal inhibitory concentration (IC50) stood at 0.5 µM.
Consider `CCc1c(C)[nH]c(=O)c(I)c1Oc1cc(C)cc(C)c1`, for which the IC50 with MT4 [2] was 0.02 µM; with MT4 [6], 0.02 µM; in the assay on MT4 [7], 0.006 µM; in the assay with MT4 [4] it was 0.003 µM; with MT4 [8] it was 0.045 µM; in the assay with MT4 [9], 0.04 µM. The same compound displayed an IC50 with MT4 [5] of 0.0013 µM. Further, the SI in assay [3] came to 9000.
Take `CCOCn1c(Cc2cc(C)cc(C)c2)c(C(C)C)c(=O)[nH]c1=O`: the IC50 was determined as 0.18 µM in the assay with MT4 [2], 0.04 µM in the assay on MT4 [4] and 0.001 µM in the assay with MT4 [5]. Also, the SI in assay [3] stood at 52000.
As to `CCc1c(C)[nH]c(=O)c(N(C)C)c1Cc1cc(C)cc(C)c1`, the half-maximal inhibitory concentration (IC50) with MT4 [2] was found to be 0.1 µM; with MT4 [7] it was 0.05 µM; in the assay with MT4 [4], 0.032 µM; in the assay on MT4 [8], 0.3 µM; in the assay on MT4 [9] it was 0.8 µM; with MT4 [5] it was 0.008 µM. Moreover, in assay [3], the SI was 12500.
Regarding `CCc1c(C)nc(O)c([N+](=O)[O-])c1Oc1cc(C)cc(C)c1`, the IC50 in the assay on MT4 [2] amounted to 0.158 µM; in the assay with MT4 [4], 0.1 µM; with MT4 [5], 0.004 µM. Moreover, in [3], the SI came out at 2500.
Turning to `CC(C)Nc1cccnc1N1CCN(C(=O)c2cc3cc(NS(C)(=O)=O)ccc3[nH]2)CC1` [DELAVIRDINE], the IC50 in the assay on MT4 [6] was over 10 µM; in the assay on MT4 [7], 1.9 µM; in the assay on MT4 [9], over 10 µM.
With `O=C1Nc2ccc(Cl)cc2[C@@](C#CC2CC2)(C(F)(F)F)O1` [EFAVIRENZ], the concentration for half-maximal inhibition (IC50) was 0.04 µM with MT4 [2]; over 10 µM with MT4 [6]; 0.002 µM in the assay with MT4 [7]; 0.04 µM with MT4 [4]; 0.2 µM with MT4 [8]; 0.04 µM in the assay on MT4 [9]. In the assay on MT4 [5], this compound returned an IC50 of 0.001 µM.
Take `CCOCn1c(Cc2ccccc2)c(C(C)C)c(=O)[nH]c1=O` [EMIVIRINE]: the IC50 in the assay with MT4 [2] is 0.1 µM; in the assay with MT4 [4], 0.032 µM; in the assay with MT4 [5], 0.008 µM. The SI in assay [3] is given as 12500.
